Experimental data published in ChEMBL document CHEMBL4665650, “Towards a TREK-1/2 (TWIK-Related K+ Channel 1 and 2) dual activator tool compound: Multi-dimensional optimization of BL-1249” (Bioorg Med Chem Lett, 2019).
pEC50: −log10 of the molar value. Values belong to the molecule of their own block, whether it stands above or below them.

Tests used:
[1] = Fraction unbound in mouse plasma; format: ADME, cell-free
[2] = Fraction unbound in rat plasma; format: ADME, cell-free
[3] = biological target: T1, Potassium channel subfamily K member 10 (Homo sapiens) (UniProt P57789); test: Activation of human TREK2 at 30 uM by thallium flux mobilization assay relative to control
T1 sequence (whole entry): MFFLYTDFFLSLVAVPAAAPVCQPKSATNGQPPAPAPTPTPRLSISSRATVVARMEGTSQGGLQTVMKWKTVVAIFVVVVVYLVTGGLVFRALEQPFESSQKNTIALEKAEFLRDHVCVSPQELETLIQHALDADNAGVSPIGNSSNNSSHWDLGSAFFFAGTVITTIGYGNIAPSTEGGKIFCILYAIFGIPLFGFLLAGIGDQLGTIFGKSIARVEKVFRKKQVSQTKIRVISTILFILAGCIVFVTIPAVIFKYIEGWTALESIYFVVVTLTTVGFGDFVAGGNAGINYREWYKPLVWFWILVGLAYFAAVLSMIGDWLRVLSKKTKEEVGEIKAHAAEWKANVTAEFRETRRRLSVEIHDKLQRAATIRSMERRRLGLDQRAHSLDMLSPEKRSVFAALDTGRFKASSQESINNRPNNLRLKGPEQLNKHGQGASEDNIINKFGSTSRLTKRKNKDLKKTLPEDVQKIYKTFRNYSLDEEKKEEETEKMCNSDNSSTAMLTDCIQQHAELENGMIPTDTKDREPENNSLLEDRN

[4] = Fraction unbound in human plasma; format: ADME, cell-free
[5] = biological target: T2, Potassium channel subfamily K member 2 (Homo sapiens) (UniProt O95069); test: Activation of human TREK1 at 30 uM by thallium flux mobilization assay relative to control
T2 sequence (whole entry): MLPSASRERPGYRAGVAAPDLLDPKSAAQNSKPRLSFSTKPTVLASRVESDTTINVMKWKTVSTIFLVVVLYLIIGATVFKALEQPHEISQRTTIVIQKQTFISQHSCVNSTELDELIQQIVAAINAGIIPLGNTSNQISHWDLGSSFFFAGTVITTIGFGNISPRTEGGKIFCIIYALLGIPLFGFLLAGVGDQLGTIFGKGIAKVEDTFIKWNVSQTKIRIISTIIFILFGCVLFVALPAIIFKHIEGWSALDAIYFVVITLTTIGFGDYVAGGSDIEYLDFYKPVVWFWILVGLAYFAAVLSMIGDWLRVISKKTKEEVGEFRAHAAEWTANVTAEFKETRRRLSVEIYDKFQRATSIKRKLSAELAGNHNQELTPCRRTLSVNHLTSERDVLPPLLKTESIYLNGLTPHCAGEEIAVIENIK

[6] = biological target: T3, Potassium channel subfamily K member 10 (Homo sapiens, UniProt P57789); test: Activation of human TREK2 by thallium flux mobilization assay
T3 sequence (P57789 whole entry): T1 sequence (whole entry)

[7] = biological target: T4, Potassium channel subfamily K member 2 (Homo sapiens, UniProt O95069); test: Activation of human TREK1 by thallium flux mobilization assay
T4 sequence (O95069 whole entry): T2 sequence (whole entry)

[8] = biological target: Cysteinyl leukotriene receptor 1 (Homo sapiens) (UniProt Q9Y271); test: Displacement of [3H]LTD4 from full length recombinant human CysLT1 Leukotriene receptor expressed in CHO-K1 cells at 30 uM incubated for 30 mins by radiometric scintillation analysis relative to control; format: cell-based
[9] = biological target: Adenosine receptor A2a (Homo sapiens) (UniProt P29274); test: Displacement of [3H]CGS-21680 from full length recombinant human A2A receptor expressed in HEK293 cells at 30 uM measured after 90 mins by radiometric scintillation analysis relative to control; format: cell-based
Chain of Adenosine receptor A2a (Homo sapiens) (P29274 whole entry): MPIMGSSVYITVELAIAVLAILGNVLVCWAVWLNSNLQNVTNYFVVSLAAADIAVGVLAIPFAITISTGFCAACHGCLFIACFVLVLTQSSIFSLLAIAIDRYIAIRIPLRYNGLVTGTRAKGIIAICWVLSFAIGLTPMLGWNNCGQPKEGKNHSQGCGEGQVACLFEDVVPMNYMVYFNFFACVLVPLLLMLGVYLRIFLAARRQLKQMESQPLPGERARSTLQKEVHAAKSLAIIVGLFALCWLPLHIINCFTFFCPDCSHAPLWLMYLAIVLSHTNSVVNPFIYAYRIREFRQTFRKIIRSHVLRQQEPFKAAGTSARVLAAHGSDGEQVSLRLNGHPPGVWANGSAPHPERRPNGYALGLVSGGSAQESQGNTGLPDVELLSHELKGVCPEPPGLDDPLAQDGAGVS

[10] = biological target: Potassium voltage-gated channel subfamily KQT member 3 (Homo sapiens) (UniProt O43525); test: Inhibition of Kv7.3 (unknown origin) at 30 uM by manual patch clamp method relative to control
Chain of Potassium voltage-gated channel subfamily KQT member 3 (Homo sapiens) (O43525 whole entry): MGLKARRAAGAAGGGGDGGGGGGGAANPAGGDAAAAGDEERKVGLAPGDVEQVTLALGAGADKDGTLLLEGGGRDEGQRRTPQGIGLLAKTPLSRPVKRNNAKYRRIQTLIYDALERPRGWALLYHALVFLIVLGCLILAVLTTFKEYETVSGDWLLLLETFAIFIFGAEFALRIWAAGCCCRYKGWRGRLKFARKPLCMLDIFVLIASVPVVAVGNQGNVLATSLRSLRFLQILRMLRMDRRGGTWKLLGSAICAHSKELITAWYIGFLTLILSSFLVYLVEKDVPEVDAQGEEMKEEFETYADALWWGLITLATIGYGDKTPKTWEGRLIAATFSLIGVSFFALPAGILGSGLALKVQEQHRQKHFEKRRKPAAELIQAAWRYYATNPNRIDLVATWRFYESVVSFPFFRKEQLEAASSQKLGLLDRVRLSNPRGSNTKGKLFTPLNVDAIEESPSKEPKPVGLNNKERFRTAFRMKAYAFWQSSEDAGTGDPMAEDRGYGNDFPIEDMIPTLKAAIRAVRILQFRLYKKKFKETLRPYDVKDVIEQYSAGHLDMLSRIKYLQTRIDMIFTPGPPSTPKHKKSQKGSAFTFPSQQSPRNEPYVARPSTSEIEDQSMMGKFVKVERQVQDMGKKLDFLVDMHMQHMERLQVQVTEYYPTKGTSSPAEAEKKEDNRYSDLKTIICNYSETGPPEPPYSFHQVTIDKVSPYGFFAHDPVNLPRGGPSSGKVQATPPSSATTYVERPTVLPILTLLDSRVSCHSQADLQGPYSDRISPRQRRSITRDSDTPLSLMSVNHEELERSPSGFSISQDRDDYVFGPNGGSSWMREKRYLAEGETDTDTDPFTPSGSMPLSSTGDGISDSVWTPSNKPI

Rattus norvegicus [11] = species on record: Rattus norvegicus; test: Displacement of [35S] dATPalphaS from Wistar rat brain P2Y receptor at 30 uM incubated for 180 mins by radiometric scintillation analysis relative to control; format: tissue-based
Rattus norvegicus [12] = species on record: Rattus norvegicus; test: Displacement of [3H]GABA from rat brain GABA receptor at 30 uM after 20 mins by radiometric scintillation analysis relative to control
[13] = biological target: 5-hydroxytryptamine receptor 1A (Homo sapiens) (UniProt P08908); test: Displacement of [3H]-8-OH-DPAT from full length recombinant human 5HT1A receptor expressed in CHO-K1 cells at 30 uM incubated for 60 mins by radiometric scintillation analysis relative to control; format: cell-based
[14] = Elimination half life in rat at 3 mg/kg, po; format: ADME, organism-based; conditions: in vivo, read-out: beta t1/2 (converted)
Kv7.1 = Kv7.1 (Homo sapiens, UniProt P51787); test: Inhibition of Kv7.1 (unknown origin) at 30 uM by manual patch clamp method relative to control
[15] = AUC in rat at 3 mg/kg, po; format: ADME, organism-based; parameters: dose 3 mg/kg; conditions: in vivo
[16] = biological target: Androgen receptor (Homo sapiens) (UniProt P10275); test: Displacement of [3H]methyltrienolone from human LNCaP cells derived androgen receptor at 30 uM measured after 1200 mins by radiometric scintillation analysis relative to control; format: cell-based
Chain of Androgen receptor (Homo sapiens) (P10275 whole entry): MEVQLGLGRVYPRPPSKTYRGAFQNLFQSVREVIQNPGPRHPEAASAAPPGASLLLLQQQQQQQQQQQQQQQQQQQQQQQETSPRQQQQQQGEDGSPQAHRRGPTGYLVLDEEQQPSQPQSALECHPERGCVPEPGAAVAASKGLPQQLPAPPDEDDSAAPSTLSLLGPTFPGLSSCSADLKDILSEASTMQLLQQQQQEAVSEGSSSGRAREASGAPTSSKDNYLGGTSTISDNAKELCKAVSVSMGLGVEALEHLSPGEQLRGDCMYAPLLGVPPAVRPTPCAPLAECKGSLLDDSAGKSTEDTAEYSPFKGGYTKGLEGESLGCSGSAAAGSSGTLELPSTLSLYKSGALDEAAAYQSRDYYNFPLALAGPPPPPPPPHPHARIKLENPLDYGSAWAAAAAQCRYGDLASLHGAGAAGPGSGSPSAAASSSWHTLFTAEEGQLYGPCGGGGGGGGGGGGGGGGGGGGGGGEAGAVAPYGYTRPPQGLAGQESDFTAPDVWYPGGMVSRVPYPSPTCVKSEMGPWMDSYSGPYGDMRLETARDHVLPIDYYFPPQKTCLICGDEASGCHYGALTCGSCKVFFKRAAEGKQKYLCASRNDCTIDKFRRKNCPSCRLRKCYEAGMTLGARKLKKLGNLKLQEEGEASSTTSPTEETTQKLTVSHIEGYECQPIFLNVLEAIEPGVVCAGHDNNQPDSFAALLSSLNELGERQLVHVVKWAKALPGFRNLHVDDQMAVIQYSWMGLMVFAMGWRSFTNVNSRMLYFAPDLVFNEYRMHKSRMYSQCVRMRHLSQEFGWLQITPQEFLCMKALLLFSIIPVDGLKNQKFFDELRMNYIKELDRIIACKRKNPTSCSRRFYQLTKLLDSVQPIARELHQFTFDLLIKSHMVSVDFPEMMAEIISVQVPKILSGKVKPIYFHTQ

[17] = biological target: A-type potassium channel modulatory protein KCNIP2 (Homo sapiens) (UniProt Q9NS61); test: Inhibition of KCHiP (unknown origin) at 30 uM by manual patch clamp method relative to control
[18] = biological target: Intermediate conductance calcium-activated potassium channel protein 4 (Homo sapiens) (UniProt O15554); test: Activation of Kca3.1 (unknown origin) at 30 uM by manual patch clamp method relative to control
[19] = biological target: Sodium-dependent noradrenaline transporter (Homo sapiens) (UniProt P23975); test: Displacement of [125I]RTI-55 from full length recombinant human NET expressed in MDCK cells at 30 uM after 180 mins by radiometric scintillation analysis relative to control; format: cell-based
[20] = biological target: Neuronal acetylcholine receptor subunit alpha-7 (Homo sapiens) (UniProt P36544); test: Inhibition of alpha7 nAChR (unknown origin) at 30 uM by manual patch clamp method relative to control
Chain of Neuronal acetylcholine receptor subunit alpha-7 (Homo sapiens) (P36544 whole entry): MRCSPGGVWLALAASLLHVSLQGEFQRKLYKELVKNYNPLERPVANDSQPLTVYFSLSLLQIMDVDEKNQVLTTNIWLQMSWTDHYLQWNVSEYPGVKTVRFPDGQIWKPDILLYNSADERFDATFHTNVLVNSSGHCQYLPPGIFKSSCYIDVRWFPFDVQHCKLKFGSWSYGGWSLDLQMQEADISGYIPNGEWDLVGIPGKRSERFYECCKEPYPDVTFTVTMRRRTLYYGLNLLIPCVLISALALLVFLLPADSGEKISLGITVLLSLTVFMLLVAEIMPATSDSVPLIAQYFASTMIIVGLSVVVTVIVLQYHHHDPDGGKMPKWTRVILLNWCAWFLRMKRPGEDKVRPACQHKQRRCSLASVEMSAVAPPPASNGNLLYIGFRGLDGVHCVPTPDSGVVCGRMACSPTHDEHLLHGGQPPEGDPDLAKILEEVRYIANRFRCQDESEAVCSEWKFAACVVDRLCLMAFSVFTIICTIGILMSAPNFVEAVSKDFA

[21] = biological target: Sodium-dependent dopamine transporter (Homo sapiens) (UniProt Q01959); test: Displacement of [125I]RTI-55 from full length recombinant human dopamine transporter expressed in CHO-S cells at 30 uM after 180 mins by radiometric scintillation analysis relative to control; format: cell-based
[22] = biological target: A-type voltage-gated potassium channel KCND3 (Homo sapiens, UniProt Q9UK17); test: Activation of Kv4.3 (unknown origin) at 30 uM by manual patch clamp method relative to control
[23] = biological target: Potassium voltage-gated channel subfamily A member 3 (Homo sapiens) (UniProt P22001); test: Inhibition of Kv1.3 (unknown origin) at 30 uM by manual patch clamp method relative to control
Chain of Potassium voltage-gated channel subfamily A member 3 (Homo sapiens) (P22001 whole entry): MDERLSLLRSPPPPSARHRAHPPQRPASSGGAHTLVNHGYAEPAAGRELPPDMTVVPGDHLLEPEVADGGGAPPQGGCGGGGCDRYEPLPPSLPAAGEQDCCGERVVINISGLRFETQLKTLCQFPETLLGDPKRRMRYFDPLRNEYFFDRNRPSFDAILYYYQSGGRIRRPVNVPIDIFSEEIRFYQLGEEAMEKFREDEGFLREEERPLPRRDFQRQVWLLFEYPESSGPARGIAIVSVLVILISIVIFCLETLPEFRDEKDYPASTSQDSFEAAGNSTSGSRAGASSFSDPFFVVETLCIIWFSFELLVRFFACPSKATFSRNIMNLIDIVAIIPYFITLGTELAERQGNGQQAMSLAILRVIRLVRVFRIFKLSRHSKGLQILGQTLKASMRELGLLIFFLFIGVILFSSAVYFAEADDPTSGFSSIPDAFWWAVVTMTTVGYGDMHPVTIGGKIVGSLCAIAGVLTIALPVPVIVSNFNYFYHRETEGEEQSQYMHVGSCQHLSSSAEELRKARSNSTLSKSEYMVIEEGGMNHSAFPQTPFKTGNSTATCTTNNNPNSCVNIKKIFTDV

Rattus norvegicus [24] = species on record: Rattus norvegicus; test: Displacement of [125I]-Triiodothyronine from thyroid hormone receptors in rat at 30 uM incubated for 1080 mins by radiometric scintillation analysis relative to control
[25] = biological target: Inward rectifier potassium channel 2 (Homo sapiens, UniProt P63252); test: Activation of Kir2.1 (unknown origin) at 30 uM by manual patch clamp method relative to control
Chain of Inward rectifier potassium channel 2 (P63252 whole entry): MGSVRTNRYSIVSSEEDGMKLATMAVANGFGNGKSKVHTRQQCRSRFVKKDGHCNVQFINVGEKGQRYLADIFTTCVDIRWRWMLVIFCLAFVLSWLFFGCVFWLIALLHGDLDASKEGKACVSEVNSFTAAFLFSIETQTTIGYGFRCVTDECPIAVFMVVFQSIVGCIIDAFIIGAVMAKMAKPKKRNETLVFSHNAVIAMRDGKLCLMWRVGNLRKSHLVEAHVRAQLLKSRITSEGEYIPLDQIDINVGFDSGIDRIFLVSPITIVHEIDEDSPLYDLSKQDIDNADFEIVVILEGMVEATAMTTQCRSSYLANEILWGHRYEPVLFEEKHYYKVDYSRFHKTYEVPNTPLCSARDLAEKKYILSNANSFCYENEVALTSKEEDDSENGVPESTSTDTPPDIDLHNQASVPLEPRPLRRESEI

[26] = Cmax in rat at 3 mg/kg, po; format: ADME, organism-based; parameters: route oral, dose 3 mg/kg; conditions: in vivo
[27] = biological target: Potassium/sodium hyperpolarization-activated cyclic nucleotide-gated channel 4 (Homo sapiens) (UniProt Q9Y3Q4); test: Activation of HCN4 (unknown origin) at 30 uM by manual patch clamp method relative to control
Chain of Potassium/sodium hyperpolarization-activated cyclic nucleotide-gated channel 4 (Homo sapiens) (Q9Y3Q4 whole entry): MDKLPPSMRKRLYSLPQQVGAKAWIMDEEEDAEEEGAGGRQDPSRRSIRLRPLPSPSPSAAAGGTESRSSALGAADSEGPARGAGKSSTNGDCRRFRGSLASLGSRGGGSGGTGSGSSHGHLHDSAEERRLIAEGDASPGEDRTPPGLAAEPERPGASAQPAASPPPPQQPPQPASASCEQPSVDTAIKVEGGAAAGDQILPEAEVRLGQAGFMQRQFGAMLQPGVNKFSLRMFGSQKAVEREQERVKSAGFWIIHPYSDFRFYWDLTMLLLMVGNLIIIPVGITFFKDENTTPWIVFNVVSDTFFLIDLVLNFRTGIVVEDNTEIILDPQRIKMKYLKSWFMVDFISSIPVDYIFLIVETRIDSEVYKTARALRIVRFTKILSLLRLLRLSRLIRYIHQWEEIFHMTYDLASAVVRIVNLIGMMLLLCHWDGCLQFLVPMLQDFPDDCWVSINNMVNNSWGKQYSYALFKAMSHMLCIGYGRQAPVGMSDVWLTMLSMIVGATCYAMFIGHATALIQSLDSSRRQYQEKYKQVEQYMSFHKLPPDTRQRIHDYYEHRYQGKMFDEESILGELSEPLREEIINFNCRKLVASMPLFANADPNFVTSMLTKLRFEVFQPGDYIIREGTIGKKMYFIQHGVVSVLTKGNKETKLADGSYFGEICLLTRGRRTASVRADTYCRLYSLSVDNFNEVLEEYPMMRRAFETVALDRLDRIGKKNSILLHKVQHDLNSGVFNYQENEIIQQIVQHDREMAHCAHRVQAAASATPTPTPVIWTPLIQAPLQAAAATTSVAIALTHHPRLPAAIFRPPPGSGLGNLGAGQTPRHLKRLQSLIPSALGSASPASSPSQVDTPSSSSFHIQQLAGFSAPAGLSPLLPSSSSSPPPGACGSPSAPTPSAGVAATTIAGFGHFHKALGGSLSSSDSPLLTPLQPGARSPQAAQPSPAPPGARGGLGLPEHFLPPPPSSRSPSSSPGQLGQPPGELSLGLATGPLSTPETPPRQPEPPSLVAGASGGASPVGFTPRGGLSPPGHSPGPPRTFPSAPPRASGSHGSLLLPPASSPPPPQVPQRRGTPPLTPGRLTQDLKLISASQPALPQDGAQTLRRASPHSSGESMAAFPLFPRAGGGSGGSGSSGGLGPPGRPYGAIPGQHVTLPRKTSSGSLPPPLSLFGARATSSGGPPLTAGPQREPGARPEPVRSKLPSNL

[28] = biological target: Adenosine receptor A1 (Homo sapiens) (UniProt P30542); test: Displacement of [3H]DPCPX from recombinant full length human adenosine A1 receptor expressed in CHO-K1 cells at 30 uM incubated for 90 mins by radiometric scintillation analysis relative to control; format: cell-based
[29] = biological target: T1, Potassium channel subfamily K member 10 (Homo sapiens); test: Activation of human TREK2 at 10 uM by thallium flux mobilization assay relative to control
[30] = biological target: T2, Potassium channel subfamily K member 2 (Homo sapiens); test: Activation of human TREK1 at 10 uM by thallium flux mobilization assay relative to control

SMILES: O=C(Nc1ccccc1C(=O)O)c1ccc(SC(F)(F)F)cc1
fraction unbound [1]: 0.081 | fraction unbound [2]: 0.04 | Activity [3]: 17% | fraction unbound [4]: 0.026 | Activity ([5]; filed as activator): 50% | pEC50 [6]: 5.30 | pEC50 [7]: 4.89

SMILES: COc1ccc(NC(=O)c2ccc(SC(F)(F)F)cc2)c(C(=O)O)c1
Activity [3]: 31% | Activity ([5]; filed as activator): 50% | pEC50 [6]: < 4.52 | pEC50 [7]: 4.69

SMILES: O=C(O)c1cccc(NC(=O)c2cccc(C(F)(F)F)c2)c1
Activity [3]: -3% | Activity [5]: -10%

SMILES: O=C(Nc1ncccc1C(=O)O)c1ccc(SC(F)(F)F)cc1
Activity [3]: 1% | Activity [5]: -4%

SMILES: O=C(Nc1ccc([N+](=O)[O-])cc1C(=O)O)c1ccc(SC(F)(F)F)cc1
Activity ([3]; filed as activator): 65% | Activity ([5]; filed as activator): 56% | pEC50 [6]: 4.58 | pEC50 [7]: 4.86

SMILES: O=C(Nc1ccc(F)cc1C(=O)O)c1ccc(SC(F)(F)F)cc1
Activity ([3]; filed as activator): 43% | Activity ([5]; filed as activator): 54% | pEC50 [6]: < 4.52 | pEC50 [7]: 5.02

SMILES: O=C(Nc1ccccc1-c1nnn[nH]1)c1ccc2c(c1)CCCC2
Activity [29]: 21% | Activity [30]: 24% | pEC50 [7]: 4.88

SMILES: O=C(Nc1ncncc1C(=O)O)c1ccc(SC(F)(F)F)cc1
Activity [3]: 0% | Activity [5]: -4%

SMILES: O=C(O)Cc1cccc(NC(=O)c2ccc(C(F)(F)F)cc2)c1
Activity [3]: -1% | Activity [5]: 0%

SMILES: O=C(O)Cc1ccccc1NC(=O)c1cccc(C(F)(F)F)c1
Activity [3]: 2% | Activity [5]: 5%

SMILES: O=C(Nc1nccnc1C(=O)O)c1ccc(SC(F)(F)F)cc1
Activity [3]: 0% | Activity [5]: -6%

The remaining lines, values ahead:

inhibition [8]: 69% | inhibition [9]: 55% | fraction unbound [1]: 0.052 | inhibition [10]: 39% | inhibition (Rattus norvegicus [11]): 90% | inhibition (Rattus norvegicus [12]): 70% | inhibition [13]: 79% | fraction unbound [2]: 0.041 | half-life [14]: 6.3 h | inhibition at 30 µM (Kv7.1): 57% | AUC [15]: 60.6 µM·h | inhibition [16]: 79% | inhibition [17]: 76% | Activity [18]: -9% | inhibition [19]: 77% | Activity ([3]; filed as activator): 84% | inhibition [20]: 7% | inhibition [21]: 67% | Activity [22]: -21% | inhibition [23]: 94% | inhibition (Rattus norvegicus [24]): 79% | Activity [25]: -16% | Cmax [26]: 8.8 µM | fraction unbound [4]: 0.003 | Activity ([5]; filed as activator): 101% | Activity [27]: -32% | pEC50 [6]: 5.26 | pEC50 [7]: 5.21 | inhibition [28]: 70%
SMILES: O=C(Nc1cc(F)c(Br)cc1C(=O)O)c1ccc(SC(F)(F)F)cc1

Activity [29]: 1% | Activity [30]: 0%
SMILES: O=C(Nc1ccc2c(c1)CCCC2)c1ccccc1-c1nnn[nH]1

Activity ([3]; filed as activator): 76% | Activity ([5]; filed as activator): 69% | pEC50 [6]: 5.17 | pEC50 [7]: 5.42
SMILES: O=C(Nc1ccc(Cl)cc1C(=O)O)c1ccc(SC(F)(F)F)cc1

Activity [3]: 1% | Activity [5]: 1%
SMILES: O=C(Nc1cnncc1C(=O)O)c1ccc(SC(F)(F)F)cc1

Activity [3]: 27% | Activity ([5]; filed as activator): 52% | pEC50 [6]: 4.55 | pEC50 [7]: 4.78
SMILES: COc1ccc(C(=O)O)c(NC(=O)c2ccc(SC(F)(F)F)cc2)c1

Activity [3]: 0% | Activity [5]: -11%
SMILES: O=C(O)c1cccc(NC(=O)c2ccc(C(F)(F)F)cc2)c1

Activity [3]: 12% | Activity [5]: 31% | pEC50 [6]: > 5.44 | pEC50 [7]: > 5.51
SMILES: Cc1sc(NC(=O)c2ccc(SC(F)(F)F)cc2)c(C(=O)O)c1C
